Results reported in patent US20250163051A1, “PYRIMIDO AROMATIC RING COMPOUND AND USE THEREOF IN DRUG” (SUNSHINE LAKE PHARMA CO., LTD., priority 2022, published 2025).

Columns and labels:
hTLR7 = target: T1, hTLR7 (Homo sapiens, UniProt Q9NYK1); experiment: Agonistic activity on human TLR7 in HEK-Blue hTLR7 cells (QUANTI-Blue); assay type: cell-based; settings: 24 h incubation, OD650, read-out: hTLR 7 EC50
T1 construct: expressed in transfected cells; host or cells: HEK-Blue hTLR7 cells
T1 sequence (Q9NYK1 27-1049): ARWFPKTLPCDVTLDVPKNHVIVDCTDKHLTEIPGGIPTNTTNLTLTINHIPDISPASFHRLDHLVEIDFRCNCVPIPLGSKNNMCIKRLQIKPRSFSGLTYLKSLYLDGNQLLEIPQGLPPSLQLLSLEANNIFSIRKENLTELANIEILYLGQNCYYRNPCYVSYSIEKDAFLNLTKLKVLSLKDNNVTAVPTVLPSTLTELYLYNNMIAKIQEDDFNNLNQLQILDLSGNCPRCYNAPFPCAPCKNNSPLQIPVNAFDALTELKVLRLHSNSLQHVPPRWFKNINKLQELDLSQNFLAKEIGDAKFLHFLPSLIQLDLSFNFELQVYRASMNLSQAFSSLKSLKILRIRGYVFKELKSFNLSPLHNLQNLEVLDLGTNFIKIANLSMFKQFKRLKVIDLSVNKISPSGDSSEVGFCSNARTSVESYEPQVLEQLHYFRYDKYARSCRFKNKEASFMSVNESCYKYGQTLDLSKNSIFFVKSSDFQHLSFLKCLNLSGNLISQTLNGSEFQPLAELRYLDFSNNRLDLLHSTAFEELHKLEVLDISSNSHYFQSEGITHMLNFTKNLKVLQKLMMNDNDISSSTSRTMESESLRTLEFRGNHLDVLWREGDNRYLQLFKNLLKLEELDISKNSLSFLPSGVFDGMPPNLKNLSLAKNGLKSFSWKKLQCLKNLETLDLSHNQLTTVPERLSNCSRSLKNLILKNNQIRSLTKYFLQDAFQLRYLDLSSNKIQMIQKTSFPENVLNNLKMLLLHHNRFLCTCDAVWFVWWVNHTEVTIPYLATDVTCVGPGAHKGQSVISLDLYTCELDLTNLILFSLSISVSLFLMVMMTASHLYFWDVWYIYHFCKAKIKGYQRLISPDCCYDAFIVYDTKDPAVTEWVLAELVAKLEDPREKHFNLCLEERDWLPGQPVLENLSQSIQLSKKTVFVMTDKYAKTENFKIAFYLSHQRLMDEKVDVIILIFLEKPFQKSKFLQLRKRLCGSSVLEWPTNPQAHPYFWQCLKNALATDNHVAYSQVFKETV
Procedure: (§1) Purpose: HEK-Blue™ hTLR7 and HEK-Blue™ hTLR8 cells were used to detect the agonist and cytotoxic activities of compounds against hTLR7 and hTLR8.
(§2) The experimental steps were as shown below: • 1) Preparation of compound: The compound was prepared into a 20 mM stock solution with DMSO, and then the stock solution was diluted 3-fold in a gradient and added to a 96-well plate, for a total of 10 concentrations, with duplicate wells for each concentration. For negative control wells, 0.5 μL DMSO was added to each well. The final DMSO concentration was 0.5%. • 2) HEK-Blue™ hTLR7 or HEK-Blue™ hTLR8 cells were suspended in culture medium and then seeded into 96-well plates containing compounds at a cell count of 50,000 per well. The compounds and cells were incubated for 24 h at 37° C., 5% Co2. • 3) QUANTI-Blue was used for the detection solution: to a mixture of 1 mL of QB reagent and 1 mL of QB buffer was added 98 mL of sterile water, the mixture was mixed and dissolved, and then placed at room temperature for 10 min. • 4) Activity test of the compound: 20 μL of the culture supernatant in step 2) was added to each well of a 96-well plate containing 180 μL of QUANTI-Blue detection solution. After incubation at 37° C. for 1 h, the absorbance at 650 nm (OD650) was detected using a multifunctional microplate reader Flextation III. • 5) Detection of cell activity: The chemiluminescent signal (RLU) was detected using the multifunctional microplate reader Flextation III according to the instructions of Celltiter-Glo. • 6) Data analysis
Activity of compounds: OD650 values were analyzed using GraphPad Prism software, and the compound dose-effect curves were fitted to calculate the EC50 values of the compounds.

[1] = Cell toxicity (Celltiter-Glo) in HEK-Blue hTLR8 cells; settings: human
Procedure: as §1, §2
Detection of cell activity: The calculation formula for cell activity % is as follows.
The cell activity % values were analyzed using GraphPad Prism software, and the compound dose-effect curves were fitted to calculate the CC50 values of the compounds.
Cell activity %=RLU compound/RLU DMSO Control*100%

hTLR8 = target: T2, hTLR8 (Homo sapiens, UniProt Q9NR97); experiment: Agonistic activity on human TLR8 in HEK-Blue hTLR8 cells (QUANTI-Blue); assay type: cell-based; settings: 24 h incubation, OD650, read-out: hTLR 8 EC50
T2 construct: expressed in transfected cells; host or cells: HEK-Blue hTLR8 cells
T2 sequence (Q9NR97 27-1041): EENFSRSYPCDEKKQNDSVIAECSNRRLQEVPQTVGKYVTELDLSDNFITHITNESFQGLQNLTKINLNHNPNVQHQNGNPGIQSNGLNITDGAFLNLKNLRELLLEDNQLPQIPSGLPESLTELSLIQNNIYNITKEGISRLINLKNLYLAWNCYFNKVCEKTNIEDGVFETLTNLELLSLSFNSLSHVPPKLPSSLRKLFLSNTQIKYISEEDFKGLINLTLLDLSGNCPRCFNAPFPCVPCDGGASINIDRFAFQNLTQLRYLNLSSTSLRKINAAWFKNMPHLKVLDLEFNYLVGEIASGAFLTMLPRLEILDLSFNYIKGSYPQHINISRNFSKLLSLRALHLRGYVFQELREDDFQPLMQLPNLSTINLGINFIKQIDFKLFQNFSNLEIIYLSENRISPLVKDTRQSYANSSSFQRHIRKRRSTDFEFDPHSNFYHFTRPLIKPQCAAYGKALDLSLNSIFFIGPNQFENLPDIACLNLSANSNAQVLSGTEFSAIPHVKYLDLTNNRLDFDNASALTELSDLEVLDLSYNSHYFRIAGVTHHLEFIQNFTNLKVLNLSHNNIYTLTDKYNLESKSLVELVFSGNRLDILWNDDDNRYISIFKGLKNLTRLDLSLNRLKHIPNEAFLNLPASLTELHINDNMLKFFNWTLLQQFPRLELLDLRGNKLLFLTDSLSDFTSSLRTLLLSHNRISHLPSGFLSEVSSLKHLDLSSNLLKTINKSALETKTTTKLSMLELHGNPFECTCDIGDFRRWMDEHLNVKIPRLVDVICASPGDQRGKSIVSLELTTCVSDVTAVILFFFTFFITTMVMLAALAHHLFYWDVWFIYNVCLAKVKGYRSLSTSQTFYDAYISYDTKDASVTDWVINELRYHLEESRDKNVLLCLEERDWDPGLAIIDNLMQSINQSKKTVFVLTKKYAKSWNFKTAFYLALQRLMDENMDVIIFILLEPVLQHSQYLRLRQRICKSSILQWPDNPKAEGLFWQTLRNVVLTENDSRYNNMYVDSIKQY

`CCCCNCc1c[nH]c(=O)cc1-c1ccc2c(N[C@@](C)(CO)CCCC)nc(N)nc2c1` [Example 58, (R)-4-(2-Amino-4-((1-hydroxy-2-methylhexan-2-yl)amino)quinazolin-7-yl)-5-((butylamino)methyl)pyridin-2(1H)-one] showed an EC50 (hTLR7) greater than 100 µM, a CC50 at 24 h [1] greater than 100 µM and an EC50 (hTLR8) of 0.918 µM.

For `C=CCCN(Cc1c[nH]c(=O)cc1-c1cnc2c(N[C@@](C)(CO)CCCC)nc(N)nc2c1)C(C)C` [Example 19], the EC50 (hTLR7) was greater than 100 µM, the CC50 at 24 h [1] was greater than 100 µM and the EC50 (hTLR8) was 0.255 µM.

Work on `CCCC[C@](C)(CO)Nc1nc(N)nc2cc(-c3cc(=O)[nH]cc3CN(C)C)ccc12` [Example 67, (R)-4-(2-Amino-4-((1-hydroxy-2-methylhexan-2-yl)amino)quinazolin-7-yl)-5-((dimethylamino)methyl)pyridin-2(1H)-one] yielded an EC50 (hTLR7) greater than 100 µM, a CC50 at 24 h [1] greater than 100 µM and an EC50 (hTLR8) of 0.056 µM.

Compound `CCCC[C@](C)(CO)Nc1nc(N)nc2cc(-c3cc(=O)[nH]cc3COC)ccc12` [Example 68, (R)-4-(2-Amino-4-((1-hydroxy-2-methylhexan-2-yl)amino)quinazolin-7-yl)-5-(methoxymethyl) pyridin-2(1H)-one] has an EC50 (hTLR7) of 14.2 µM, a CC50 at 24 h [1] greater than 100 µM and an EC50 (hTLR8) of 0.042 µM.

Work on `CCCC[C@](C)(CO)Nc1nc(N)nc2cc(-c3cc(=O)[nH]cc3CN(C)CCO)ccc12` [Example 60, (R)-4-(2-Amino-4-((1-hydroxy-2-methylhexan-2-yl)amino)quinazolin-7-yl)-5-(((2-hydroxyethyl)(methyl)amino)methyl)pyridin-2(1H)-one] yielded an EC50 (hTLR7) greater than 100 µM, a CC50 at 24 h [1] greater than 100 µM and an EC50 (hTLR8) of 0.292 µM.

In the case of `C=CCCN(C)Cc1c[nH]c(=O)cc1-c1cnc2c(N[C@](C)(CCCC)CNC(=O)c3cnn(C)c3)nc(N)nc2c1` [Example 44, (R)—N-(2-((2-Amino-7-(5-((but-3-en-1-yl(methyl)amino)methyl)-2-oxo-1,2-dihydropyridin-4-yl)pyrido[3,2-d]pyrimidin-4-yl)amino)-2-methylhexyl)-1-methyl-1H-pyrazole-4-carboxamide], the EC50 (hTLR7) is reported as greater than 100 µM, the CC50 at 24 h [1] is reported as greater than 100 µM and the EC50 (hTLR8) is reported as 0.166 µM.

`CCCC[C@](C)(CO)Nc1nc(N)nc2cc(-c3cc(=O)[nH]cc3CN3CCCCC3)ccc12` [Example 17] showed an EC50 (hTLR7) greater than 100 µM, a CC50 at 24 h [1] greater than 100 µM and an EC50 (hTLR8) of 0.22 µM.

Work on `CCCC[C@](C)(CO)Nc1nc(N)nc2cc(-c3cc(=S)[nH]cc3CN(C)CCOC)cnc12` [Example 66, (R)-4-(2-Amino-4-((1-hydroxy-2-methylhexan-2-yl)amino)pyrido[3,2-d]pyrimidin-7-yl)-5-(((2-methoxyethyl)(methyl)amino)methyl)pyridine-2(1H)-thione] yielded an EC50 (hTLR7) greater than 100 µM, a CC50 at 24 h [1] greater than 100 µM and an EC50 (hTLR8) of 0.183 µM.

`CCCC[C@](C)(CO)Nc1nc(N)nc2cc(-c3cc(=O)[nH]cc3CSC)cnc12` [Example 52, (R)-4-(2-Amino-4-((1-hydroxy-2-methylhexan-2-yl)amino)pyrido[3,2-d]pyrimidin-7-yl)-5-((methylthio)methyl)pyridin-2(1H)-one] showed an EC50 (hTLR7) of 18.4 µM, a CC50 at 24 h [1] greater than 100 µM and an EC50 (hTLR8) of 0.03 µM.

In the case of `CCCC[C@](C)(CO)Nc1nc(N)nc2cc(-c3cc(=S)[nH]cc3CN(C)CCOC)ccc12` [Example 65, (R)-4-(2-Amino-4-((1-hydroxy-2-methylhexan-2-yl)amino)quinazolin-7-yl)-5-(((2-methoxyethyl)(methyl)amino)methyl)pyridine-2(1H)-thione], the EC50 (hTLR7) is reported as greater than 100 µM, the CC50 at 24 h [1] is reported as greater than 100 µM and the EC50 (hTLR8) is reported as 0.212 µM.

`CCCC[C@](C)(CO)Nc1nc(N)nc2cc(-c3cc(=O)[nH]cc3CNCCOC)ccc12` [Example 57, (R)-4-(2-Amino-4-((1-hydroxy-2-methylhexan-2-yl)amino)quinazolin-7-yl)-5-(((2-methoxyethyl)amino)methyl)pyridin-2(1H)-one] gave an EC50 (hTLR7) greater than 100 µM, a CC50 at 24 h [1] greater than 100 µM and an EC50 (hTLR8) of 1.86 µM.

`CCCCN(CCCC)Cc1c[nH]c(=O)cc1-c1cnc2c(N[C@@](C)(CO)CCCC)nc(N)nc2c1` [Example 14] gave an EC50 (hTLR7) greater than 100 µM, a CC50 at 24 h [1] greater than 100 µM and an EC50 (hTLR8) of 0.288 µM.

`C=CCCN(C)Cc1cn(C)c(=O)cc1-c1cnc2c(N[C@](C)(CCCC)CNC(=O)c3cnn(C)c3)nc(N)nc2c1` [Example 45] showed an EC50 (hTLR7) greater than 100 µM, a CC50 at 24 h [1] greater than 100 µM and an EC50 (hTLR8) of 0.097 µM.

`C=CCCN(C)C(=O)c1c[nH]c(=O)cc1-c1cnc2c(N[C@@](C)(CO)CCCC)nc(N)nc2c1` [Example 38, (R)-4-(2-Amino-4-((1-hydroxy-2-methylhexan-2-yl)amino)pyrido[3,2-d]pyrimidin-7-yl)-N-(but-3-en-1-yl)-N-methyl-6-oxo-1,6-dihydropyridine-3-carboxamide] gave an EC50 (hTLR7) greater than 100 µM, a CC50 at 24 h [1] greater than 100 µM and an EC50 (hTLR8) of 2.99 µM.

`C=CCCN(CCC=C)Cc1c[nH]c(=O)cc1-c1cnc2c(N[C@@](C)(CO)CCCC)nc(N)nc2c1` [Example 13] showed an EC50 (hTLR7) of 81.5 µM, a CC50 at 24 h [1] of 97.3 µM and an EC50 (hTLR8) of 1.73 µM.

With `CCCC[C@](C)(CO)Nc1nc(N)nc2cc(-c3cc(=O)[nH]cc3CN3CCN(C(C)(C)C)CC3)cnc12` [Example 23] the EC50 (hTLR7) was greater than 100 µM, the CC50 at 24 h [1] was greater than 100 µM and the EC50 (hTLR8) was 0.291 µM.

For `CCCC[C@](C)(CO)Nc1nc(N)nc2cc(-c3cc(=O)[nH]cc3CN3CCOCC3)cnc12` [Example 24], the EC50 (hTLR7) was greater than 100 µM, the CC50 at 24 h [1] was greater than 100 µM and the EC50 (hTLR8) was 0.239 µM.

For `CCCC[C@](C)(CO)Nc1nc(N)nc2cc(-c3cc(=O)[nH]cc3CN3CCN(C)CC3)cnc12` [Example 22], the EC50 (hTLR7) was greater than 100 µM, the CC50 at 24 h [1] was greater than 100 µM and the EC50 (hTLR8) was 0.98 µM.

For `CCCC[C@](C)(CO)Nc1nc(N)nc2cc(-c3cc(=O)[nH]cc3CN3CCSCC3)cnc12` [Example 25], the EC50 (hTLR7) was greater than 100 µM, the CC50 at 24 h [1] was greater than 100 µM and the EC50 (hTLR8) was 0.13 µM.
